Reference: ChEMBL document CHEMBL1201862, “PubChem BioAssay data set” (2004)
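Protocol summary: plate cells (96-well), add compound at 5 concentrations, incubate 48 h, interpolate endpoints linearly. At the GI50, growth is halved.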 The source made the active and inactive calls. No stated cut-off is given here; in the data, active = GI50 up to about 1.1 µM and inactive = higher.

Legend:
Experiment in all cases: growth of human tumour cells (NCI), 48 h
LOX IMVI = system: LOX IMVI
CCRF-CEM = system: CCRF-CEM
SK-OV-3 = system: SK-OV-3
SNB-78 = system: SNB-78
Malme-3M = system: Malme-3M
KM12 = system: KM12
LXFL 529 = system: LXFL 529
SF-295 = system: SF-295
OVCAR-3 = system: OVCAR-3
SK-MEL-5 = system: SK-MEL-5
OVCAR-8 = system: OVCAR-8
SK-MEL-2 = system: SK-MEL-2
SK-MEL-28 = system: SK-MEL-28
K562 = system: K562
DMS-273 = system: DMS-273
NCI-H226 = system: NCI-H226
M19-MEL = system: M19-MEL
NCI-H23 = system: NCI-H23
SF-268 = system: SF-268
786-0 = system: 786-0
NCI-H522 = system: NCI-H522
SNB-75 = system: SNB-75
HCT-116 = system: HCT-116
UACC-257 = system: UACC-257
A498 = system: A498
TK-10 = system: TK-10
ACHN = system: ACHN
XF498 = system: XF498
RXF 393 = system: RXF 393
UO-31 = system: UO-31
NCI-H460 = system: NCI-H460
OVCAR-4 = system: OVCAR-4
SN12C = system: SN12C
HT-29 = system: HT-29
MOLT-4 = system: MOLT-4
IGROV-1 = system: IGROV-1
U-251 = system: U-251
M14 = system: M14
UACC-62 = system: UACC-62
HOP-18 = system: HOP-18
SF-539 = system: SF-539
HCT-15 = system: HCT-15
SNB-19 = system: SNB-19
HL-60 = system: HL-60
A549 = system: A549
DLD-1 = system: DLD-1
OVCAR-5 = system: OVCAR-5
HOP-62 = system: HOP-62
KM-20L2 = system: KM-20L2
RPMI-8226 = system: RPMI-8226
HCC 2998 = system: HCC 2998
NCI/ADR-RES = system: NCI/ADR-RES
COLO 205 = system: COLO 205
HOP-92 = system: HOP-92
DMS-114 = system: DMS-114
MCF7 = system: MCF7
EKVX = system: EKVX
CAKI-1 = system: CAKI-1
SW-620 = system: SW-620
SR = system: SR

## O=C(NN1C(=O)C(Cl)C1c1cccc(Cl)c1)c1ccccc1O (stereo unspecified)
LOX IMVI
  GI50: > 100 µM (inactive)
CCRF-CEM
  GI50: > 100 µM (inactive)
SK-OV-3
  GI50: > 100 µM (inactive)
SNB-78
  GI50: > 100 µM (inactive)
Malme-3M
  GI50: > 100 µM (inactive)
KM12
  GI50: > 100 µM (inactive)
LXFL 529
  GI50: > 100 µM (inactive)
SF-295
  GI50: 68.4 µM (inactive)
OVCAR-3
  GI50: > 100 µM (inactive)
SK-MEL-5
  GI50: > 100 µM (inactive)
OVCAR-8
  GI50: > 100 µM (inactive)
SK-MEL-2
  GI50: > 100 µM (inactive)
SK-MEL-28
  GI50: > 100 µM (inactive)
K562
  GI50: > 100 µM (inactive)
DMS-273
  GI50: > 100 µM (inactive)
NCI-H226
  GI50: > 100 µM (inactive)
M19-MEL
  GI50: > 100 µM (inactive)
NCI-H23
  GI50: > 100 µM (inactive)
SF-268
  GI50: > 100 µM (inactive)
786-0
  GI50: > 100 µM (inactive)
NCI-H522
  GI50: > 100 µM (inactive)
SNB-75
  GI50: > 100 µM (inactive)
HCT-116
  GI50: > 100 µM (inactive)
UACC-257
  GI50: > 100 µM (inactive)
A498
  GI50: > 100 µM (inactive)
TK-10
  GI50: > 100 µM (inactive)
ACHN
  GI50: > 100 µM (inactive)
XF498
  GI50: 15.3 µM (inactive)
RXF 393
  GI50: > 100 µM (inactive)
UO-31
  GI50: > 100 µM (inactive)
NCI-H460
  GI50: > 100 µM (inactive)
OVCAR-4
  GI50: > 100 µM (inactive)
SN12C
  GI50: > 100 µM (inactive)
HT-29
  GI50: > 100 µM (inactive)
MOLT-4
  GI50: > 100 µM (inactive)
IGROV-1
  GI50: > 100 µM (inactive)
U-251
  GI50: > 100 µM (inactive)
M14
  GI50: > 100 µM (inactive)
UACC-62
  GI50: > 100 µM (inactive)
HOP-18
  GI50: 0.167 µM (active)
SF-539
  GI50: > 100 µM (inactive)
HCT-15
  GI50: > 100 µM
SNB-19
  GI50: > 100 µM (inactive)
HL-60
  GI50: > 100 µM (inactive)
A549
  GI50: > 100 µM (inactive)

## C[C@H](CN1CC(=O)NC(=O)C1)N1CC(=O)NC(=O)C1
LOX IMVI
  GI50: > 100 µM (inactive)
CCRF-CEM
  GI50: 34.3 µM (inactive)
SK-OV-3
  GI50: > 100 µM (inactive)
SNB-78
  GI50: > 100 µM (inactive)
Malme-3M
  GI50: 42.9 µM (inactive)
KM12
  GI50: > 100 µM (inactive)
DLD-1
  GI50: > 86.5 µM (inactive)
SF-295
  GI50: > 100 µM (inactive)
OVCAR-5
  GI50: > 100 µM (inactive)
HOP-62
  GI50: > 65 µM (inactive)
OVCAR-3
  GI50: > 100 µM (inactive)
SK-MEL-5
  GI50: > 100 µM (inactive)
OVCAR-8
  GI50: > 100 µM (inactive)
SK-MEL-2
  GI50: > 10 µM (inactive)
SK-MEL-28
  GI50: > 100 µM (inactive)
K562
  GI50: > 84.3 µM (inactive)
DMS-273
  GI50: > 100 µM (inactive)
NCI-H226
  GI50: 39 µM (inactive)
M19-MEL
  GI50: > 100 µM (inactive)
KM-20L2
  GI50: > 87.7 µM (inactive)
NCI-H23
  GI50: > 86.1 µM (inactive)
SF-268
  GI50: > 96.2 µM (inactive)
NCI-H522
  GI50: 20.8 µM (inactive)
SNB-75
  GI50: > 100 µM (inactive)
HCT-116
  GI50: 82.4 µM (inactive)
UACC-257
  GI50: > 100 µM (inactive)
A498
  GI50: > 64.6 µM (inactive)
RPMI-8226
  GI50: > 53.2 µM (inactive)
XF498
  GI50: > 100 µM (inactive)
RXF 393
  GI50: > 100 µM (inactive)
UO-31
  GI50: 20 µM (inactive)
NCI-H460
  GI50: 9.31 µM (inactive)
HCC 2998
  GI50: 22.7 µM (inactive)
NCI/ADR-RES
  GI50: > 100 µM (inactive)
OVCAR-4
  GI50: > 100 µM (inactive)
SN12C
  GI50: > 85.3 µM (inactive)
HT-29
  GI50: > 100 µM (inactive)
COLO 205
  GI50: 11.7 µM (inactive)
HOP-92
  GI50: > 100 µM (inactive)
MOLT-4
  GI50: 9.89 µM (inactive)
IGROV-1
  GI50: > 100 µM (inactive)
U-251
  GI50: 58.2 µM (inactive)
UACC-62
  GI50: > 100 µM (inactive)
HOP-18
  GI50: > 100 µM (inactive)
DMS-114
  GI50: 0.18 µM (active)
MCF7
  GI50: 44.2 µM (inactive)
EKVX
  GI50: 57 µM (inactive)
CAKI-1
  GI50: > 100 µM (inactive)
SF-539
  GI50: > 100 µM (inactive)
HCT-15
  GI50: > 76.2 µM
SNB-19
  GI50: 50.4 µM (inactive)
A549
  GI50: > 70.5 µM (inactive)
SW-620
  GI50: > 47.3 µM (inactive)

## CC(C)C(=O)CC(c1ccc(Br)cc1)N1N=C(C(C)C)CC1c1ccc(Br)cc1 (stereo unspecified)
LOX IMVI
  GI50: 55.8 µM (inactive)
CCRF-CEM
  GI50: 30.5 µM (inactive)
SK-OV-3
  GI50: 34.5 µM (inactive)
Malme-3M
  GI50: 31.4 µM (inactive)
KM12
  GI50: > 100 µM (inactive)
LXFL 529
  GI50: > 100 µM (inactive)
OVCAR-5
  GI50: > 100 µM (inactive)
HOP-62
  GI50: > 100 µM (inactive)
OVCAR-3
  GI50: 70.8 µM (inactive)
OVCAR-8
  GI50: > 100 µM (inactive)
SR
  GI50: 69 µM (inactive)
SK-MEL-2
  GI50: 53.6 µM (inactive)
SK-MEL-28
  GI50: > 100 µM (inactive)
K562
  GI50: 64.4 µM (inactive)
DMS-273
  GI50: 38.1 µM (inactive)
NCI-H226
  GI50: > 100 µM (inactive)
M19-MEL
  GI50: 25.9 µM (inactive)
KM-20L2
  GI50: 45.3 µM (inactive)
NCI-H23
  GI50: > 100 µM (inactive)
SF-268
  GI50: > 100 µM (inactive)
NCI-H522
  GI50: 65.9 µM (inactive)
HCT-116
  GI50: 29.4 µM (inactive)
TK-10
  GI50: > 100 µM (inactive)
ACHN
  GI50: > 100 µM (inactive)
XF498
  GI50: 21 µM (inactive)
RXF 393
  GI50: 16.9 µM (inactive)
UO-31
  GI50: 68.7 µM (inactive)
NCI-H460
  GI50: 51.2 µM (inactive)
HCC 2998
  GI50: 34.2 µM (inactive)
OVCAR-4
  GI50: > 100 µM (inactive)
SN12C
  GI50: > 100 µM (inactive)
HT-29
  GI50: 18.6 µM (inactive)
COLO 205
  GI50: > 100 µM (inactive)
HOP-92
  GI50: 31.4 µM (inactive)
MOLT-4
  GI50: 31.3 µM (inactive)
U-251
  GI50: 48.8 µM (inactive)
M14
  GI50: 66.1 µM (inactive)
HOP-18
  GI50: > 100 µM (inactive)
DMS-114
  GI50: 27.9 µM (inactive)
EKVX
  GI50: 44.9 µM (inactive)
CAKI-1
  GI50: > 100 µM (inactive)
SF-539
  GI50: > 100 µM (inactive)
HCT-15
  GI50: 62.4 µM
SNB-19
  GI50: 50.7 µM (inactive)
A549
  GI50: 96.8 µM (inactive)
SW-620
  GI50: 93.3 µM (inactive)

## COc1cc(/C=C/C(=O)O)ccc1C(=O)O/C=C/c1ccccc1
LOX IMVI
  GI50: 73.1 µM (inactive)
CCRF-CEM
  GI50: 60.7 µM (inactive)
SK-OV-3
  GI50: > 100 µM (inactive)
SNB-78
  GI50: > 100 µM (inactive)
Malme-3M
  GI50: > 100 µM (inactive)
KM12
  GI50: > 100 µM (inactive)
DLD-1
  GI50: > 100 µM (inactive)
SF-295
  GI50: > 100 µM (inactive)
OVCAR-5
  GI50: > 100 µM (inactive)
HOP-62
  GI50: > 100 µM (inactive)
OVCAR-3
  GI50: > 100 µM (inactive)
SK-MEL-5
  GI50: > 100 µM (inactive)
OVCAR-8
  GI50: > 67.5 µM (inactive)
SK-MEL-2
  GI50: > 100 µM (inactive)
SK-MEL-28
  GI50: > 100 µM (inactive)
K562
  GI50: > 100 µM (inactive)
DMS-273
  GI50: > 100 µM (inactive)
NCI-H226
  GI50: > 100 µM (inactive)
M19-MEL
  GI50: > 81.7 µM (inactive)
KM-20L2
  GI50: > 100 µM (inactive)
NCI-H23
  GI50: > 100 µM (inactive)
SF-268
  GI50: > 100 µM (inactive)
NCI-H522
  GI50: > 61.9 µM (inactive)
SNB-75
  GI50: 67 µM (inactive)
HCT-116
  GI50: > 72.8 µM (inactive)
UACC-257
  GI50: > 100 µM (inactive)
A498
  GI50: > 85.3 µM (inactive)
RPMI-8226
  GI50: > 100 µM (inactive)
XF498
  GI50: > 100 µM (inactive)
RXF 393
  GI50: > 100 µM (inactive)
UO-31
  GI50: > 66.7 µM (inactive)
NCI-H460
  GI50: > 100 µM (inactive)
NCI/ADR-RES
  GI50: > 100 µM (inactive)
OVCAR-4
  GI50: > 100 µM (inactive)
SN12C
  GI50: > 100 µM (inactive)
HT-29
  GI50: > 100 µM (inactive)
COLO 205
  GI50: > 100 µM (inactive)
HOP-92
  GI50: > 100 µM (inactive)
MOLT-4
  GI50: 65.9 µM (inactive)
IGROV-1
  GI50: > 100 µM (inactive)
U-251
  GI50: > 100 µM (inactive)
UACC-62
  GI50: > 100 µM (inactive)
HOP-18
  GI50: > 100 µM (inactive)
DMS-114
  GI50: > 100 µM (inactive)
MCF7
  GI50: 73.5 µM (inactive)
EKVX
  GI50: > 100 µM (inactive)
SF-539
  GI50: > 100 µM (inactive)
HCT-15
  GI50: 99.8 µM
SNB-19
  GI50: > 100 µM (inactive)
HL-60
  GI50: 45.3 µM (inactive)
A549
  GI50: > 100 µM (inactive)
SW-620
  GI50: > 100 µM (inactive)
